The data set is described as follows: gradient 5% acetonitrile 3 min, to 50% in 2 min, to 85% in 15 min, held 3 min, 100 µL/min. Conditions: column: Zorbax Extend-C18 2.1 x 50 mm; eluents: water / acetonitrile, 0.1% formic acid. The method, boiled down: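 The system's dead and dwell volumes were 40 μL and 900 μL, with a Zorbax Extend-C18 column (2.1 × 50 mm, 1.8 μm) run at 100 μL/min in water and acetonitrile containing 0.1% formic acid each. Pure standards were analyzed in mixtures of ~100 molecules by HPLC–quadrupole time-of-flight mass spectrometry in positive and negative ionization mode. Retention time was assigned from computationally picked, manually inspected adduct peaks.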
For `O=S(=O)(c1ccc(Cl)cc1)N1CCN(c2cnn3c(C4CC4)nnc3c2)CC1`, the RP-LC retention time came out at 749 s.

Compound `CN(C)CC1CN(C(=O)COc2ccccc2)CC12CCOCC2` (centres undefined) displayed an RP-LC retention time of 599 s.

In the case of `CCCNC(=O)NCCC1CCN(S(=O)(=O)c2ccc(F)cc2)CC1`, the RP-LC retention time stood at 771 s.

In the case of `CC1CCC(C(=O)Nc2ccc(-c3nnc4n3CCCC4)cc2)CC1` (centres undefined), the RP-LC retention time is 734 s.

Consider `CN1C(=O)c2cc(C(=O)NCc3cccc(Br)c3)nn2CC1(C)C(=O)NC1CCCC1` (centres undefined), for which the RP-LC retention time was 807 s.

Compound `CNC(=O)c1sc2nc(-c3ccccc3)c(NCCCOC)n2c1C` gave an RP-LC retention time of 684 s.

`Cc1nn(Cc2cccc(C(=O)Nc3nc(-c4ccccc4)cs3)c2)c(C)c1Cl` came in with an RP-LC retention time of 1160 s.

Compound `COc1cc(NC(=O)c2ccc(-c3ccc(Cl)cc3)o2)cc(OC)c1` had an RP-LC retention time of 1170 s.

`COC(=O)c1ccc(NC(=O)N2[C@H]3CC[C@@H]2c2cnc(C)nc2C3)cc1` returned an RP-LC retention time of 653 s.

Compound `O=S(=O)(c1cc(-c2nnc(-c3ccc(F)cc3)o2)ccc1Cl)N1CCCC1` had an RP-LC retention time of 1070 s.

`O=C(c1cccc(F)c1)N1CCCC1c1nc(-c2ccccc2)no1` (centres undefined) had an RP-LC retention time of 946 s.

On to `Cc1ccc2c(C(=O)NCCc3cccs3)cc(NC(=O)C3CC3)cc2n1`, for which the RP-LC retention time stood at 633 s.

As to `CCc1noc(NC(C)=O)c1-c1ccc(C)c(S(=O)(=O)N2CCc3ccccc3C2)c1`, the RP-LC retention time came out at 956 s.

Take `Cc1ccc(C)c(-c2nc(NC(=O)c3cc(C)on3)sc2C)c1`: the RP-LC retention time was determined as 1110 s.

Take `Cc1ccc(NC(=O)c2[nH]c3cc(C)sc3c2CN(C)C)c(Cl)c1`: the RP-LC retention time worked out at 708 s.

Compound `CC(=O)Nc1cccc(-c2nc(-c3ccc4oc(-c5ccccc5)nc4c3)no2)c1` showed an RP-LC retention time of 769 s.

For the compound `CC(C)Cn1c(=O)c(C(=O)NCc2ccccc2)nc2cccnc21`, the RP-LC retention time is 915 s.

In turn, `Cn1ccc2cc(S(=O)(=O)N3CCCC(C(=O)NC4CCCCCC4)C3)ccc21` (centres undefined) had an RP-LC retention time of 1010 s.

`CCOc1ccccc1NC(=O)CSc1cc(N2CCN(c3ccccc3OC)CC2)ncn1` displayed an RP-LC retention time of 1160 s.

`Cc1cc(NC(=O)c2cccc(NS(=O)(=O)c3ccc(F)cc3)c2)no1` yielded an RP-LC retention time of 736 s.

`CCOC(=O)c1c(S(=O)(=O)N2CCC(C(=O)NCc3ccc(F)cc3)CC2)c(C)n(CC)c1C` showed an RP-LC retention time of 835 s.

Turning to `CCn1cc(C(=O)NCc2ccc3c(c2)OCO3)c2cccnc21`, the RP-LC retention time was 755 s.

`Cc1ccc(N2CC(c3noc(-c4cccc(OC(F)(F)F)c4)n3)CC2=O)cc1` (centres undefined) displayed an RP-LC retention time of 1160 s.

Turning to `COc1cc(OC)c(NC(=O)Nc2ccc3nc(N4CCN(C)CC4)cc(C)c3c2)cc1Cl`, the RP-LC retention time was determined as 614 s.

`COc1ccc(CNC(=O)C2CCN(S(=O)(=O)c3cn(C(C)C)cn3)CC2)cc1` registered an RP-LC retention time of 733 s.

In the case of `CCOc1ccc2nc(NC(=O)C3CCN(S(=O)(=O)c4cn(CC)cn4)CC3)sc2c1`, the RP-LC retention time was determined as 809 s.

Compound `Cc1nc(-c2csc(S(=O)(=O)N3CCCC(C(=O)Nc4ccc(F)c(F)c4)C3)c2)no1` (centres undefined) had an RP-LC retention time of 1020 s.

Compound `O=C(O)c1nnn(-c2ccc(F)cc2)c1-c1cccnc1` returned an RP-LC retention time of 629 s.

`O=C(c1csc(S(=O)(=O)N2CCC(C(=O)N3CCCCC3)CC2)c1)N1CCOCC1`: the RP-LC retention time came out at 689 s.

In turn, `O=C(NC1CCCCC1)c1ccc2c(c1)NC(=O)C1CCCCN21` (centres undefined) showed an RP-LC retention time of 807 s.

With `COCCC(=O)Nc1cnn(-c2ncc(N3CCCCC3)cn2)c1`, the RP-LC retention time was determined as 667 s.

For `CC1(COc2ccc3c(c2)ncn3-c2ccc3cccc(N4CCC(N)CC4)c3n2)COC1`, the RP-LC retention time worked out at 667 s.

`Cc1cc(NC(=O)C2CC2)nn1Cc1ccccc1` returned an RP-LC retention time of 746 s.

`CCc1cccc(NC(=O)C2CCN(S(=O)(=O)c3ccc4c(c3)sc(=O)n4CC)CC2)c1` gave an RP-LC retention time of 932 s.

In turn, `CCOCCCNC(=O)CCC(=O)N1CC2CCCN2c2ccccc21` (centres undefined) came in with an RP-LC retention time of 729 s.

Regarding `O=C(NC1CCCC1)c1nnc(-c2ccc(S(=O)(=O)N3CCCCC3)cc2)o1`, the RP-LC retention time amounted to 960 s.

In the case of `Nc1c(C(=O)NCc2ccc3c(c2)OCO3)nsc1C(=O)N1CCN(c2ncccn2)CC1`, the RP-LC retention time came to 850 s.

In the case of `O=C(NCc1cnoc1-c1ccc(F)cc1)c1c(F)cccc1F`, the RP-LC retention time amounted to 817 s.

In turn, `COc1cccc(-n2c(=O)c3sccc3n(Cc3nc(-c4ccc(F)c(Cl)c4)no3)c2=O)c1` displayed an RP-LC retention time of 1060 s.

`Cc1oc(-c2[nH]ncc2C(=O)N2CCCCC2)cc1S(=O)(=O)Nc1cccc(F)c1`: the RP-LC retention time worked out at 710 s.

For the compound `COCCC(=O)NC1CCN(C2=NS(=O)(=O)C(c3ccc(C)c(C)c3)=C2C)CC1`, the RP-LC retention time came to 722 s.

`CCn1nccc1C(=O)Nc1ccc(-n2cnnn2)cc1` displayed an RP-LC retention time of 652 s.

For the compound `O=C(NC1CC1)c1nc(-c2ccncc2)cs1`, the RP-LC retention time amounted to 574 s.

Take `O=C(Cn1nc(C2CC2)cc1C(=O)N1CCCC1)NCc1ccc(F)cc1`: the RP-LC retention time is 738 s.

Compound `O=C1CCCc2cc(S(=O)(=O)NCCN3CCN(c4ccccc4F)CC3)ccc2N1` showed an RP-LC retention time of 621 s.

With `CC1Cc2cc(-c3cc(CC(=O)NCCc4ccc(S(N)(=O)=O)cc4)no3)ccc2O1` (centres undefined), the RP-LC retention time was 701 s.

`Cn1nc(C(=O)N2CCCC2)c2c1CCN(C(=O)CCC(=O)NC1CCCCC1)C2` showed an RP-LC retention time of 664 s.

In the case of `Cc1noc2nc(C)n(CC(=O)NCC(C)c3ccccc3)c(=O)c12` (centres undefined), the RP-LC retention time turned out to be 782 s.

For `Cc1ccc(N2CC(c3nc(-c4ccc5c(c4)ncn5C)no3)CC2=O)cc1` (centres undefined), the RP-LC retention time came to 664 s.

Compound `O=C(CSc1ccc(-c2ccccn2)nn1)Nc1ccc(F)c(F)c1` displayed an RP-LC retention time of 789 s.

`COc1nn(C)cc1C(=O)Nc1ccccc1SC` gave an RP-LC retention time of 776 s.

In turn, `CC(=O)c1cccc(NC(=O)CN2C(=O)CC(c3ccccc3)=Nc3cccnc32)c1` displayed an RP-LC retention time of 854 s.

In the case of `Cc1ccc(NC(=O)Cn2c(=O)c(CCC(=O)NC3CCCC3)nc3ccccc32)c(C)c1`, the RP-LC retention time was found to be 841 s.

The compound `Cc1noc(C)c1-c1ccc(S(=O)(=O)N2CCCC2)cc1` had an RP-LC retention time of 951 s.

On to `Cc1ccc(Cn2c(=O)n(CCNC(=O)CC(C)(C)C)c3ncccc32)cc1`, for which the RP-LC retention time is 855 s.

The compound `CC(C)(C)c1ccc(C(=O)Nc2nc3ccccc3[nH]2)cc1` yielded an RP-LC retention time of 778 s.

As for `Cc1ccc(CNC(=O)C2(C)CCN(S(=O)(=O)c3ccc(F)cc3)CC2)cc1`, the RP-LC retention time stood at 965 s.

`Cc1cc(C)cc(NS(=O)(=O)c2c(C)sc(C)c2-c2cc(C(F)(F)F)on2)c1`: the RP-LC retention time was determined as 1240 s.

`CN(CCCNC(=O)CCCn1c(=O)c2cccn2c2ccc(F)cc21)Cc1ccccc1` gave an RP-LC retention time of 673 s.

`COc1ccc(CN2CCC3(CC2)CC(O)CCO3)c(OC)c1` (centres undefined) yielded an RP-LC retention time of 581 s.

`CC(C)NC(=O)Cn1cccc(-c2nc(-c3ccc(Br)cc3)no2)c1=O`: the RP-LC retention time is 824 s.

Compound `O=C(NCCCN1CCCC1)c1ccc(-c2ccc(NCc3ccccc3)nn2)cc1` displayed an RP-LC retention time of 586 s.

In turn, `O=C(NCc1ccncc1)c1sc2ncccc2c1-n1cccc1` yielded an RP-LC retention time of 592 s.

`CCN1C(=O)c2cc(C(=O)Nc3ccc(C)c(C)c3)nn2CC1(C)C(=O)NC1CCCC1` (centres undefined) came in with an RP-LC retention time of 884 s.

As to `CCC(C(=O)N1CCN(c2ccc3nnc(-c4ccco4)n3n2)CC1)c1ccccc1` (centres undefined), the RP-LC retention time is 727 s.

`Cc1ccc2c(c1)OCC(=O)N2Cc1nc(-c2cccc(Cl)c2)no1`: the RP-LC retention time turned out to be 1160 s.

In the case of `CCC(=O)N1CCC(c2noc(CO)n2)C1` (centres undefined), the RP-LC retention time was 545 s.

As to `CC(C)CC(=O)Nc1ccc(S(=O)(=O)N2CCCC2c2nc(-c3ccc(Cl)cc3)no2)cc1` (centres undefined), the RP-LC retention time amounted to 1160 s.

Consider `COc1ccccc1OCC1c2ccsc2CCN1C(=O)CN(CC1CC1)C(=O)C(C)C` (centres undefined), for which the RP-LC retention time amounted to 947 s.

Turning to `Cc1ccc(NC(=O)N2CCC(n3c(-c4ccco4)nc4cccnc43)C2)cc1` (centres undefined), the RP-LC retention time came out at 776 s.

As for `CCn1ccc(C(=O)N2CCC(N3C(=O)C(O)C34CCCCC4)CC2)n1` (centres undefined), the RP-LC retention time amounted to 603 s.

In turn, `Nc1ncnc2sc3c(c12)CCCC3` displayed an RP-LC retention time of 588 s.

Compound `O=C(NCCc1ccco1)c1ccc2nc(CCc3ccccc3)oc2c1` returned an RP-LC retention time of 930 s.

Regarding `CCc1nnc(NC(=O)CSc2nnc(-c3ccc(Cl)cc3)o2)s1`, the RP-LC retention time was found to be 826 s.

For the compound `Cc1cnc(CC2CCN(S(=O)(=O)c3cccc(F)c3)C2)n1C(C)C` (centres undefined), the RP-LC retention time was determined as 671 s.

Compound `CC(C)N1CCn2c(nc3cc(C(=O)NCc4ccc(Cl)cc4)ccc32)C1=O` displayed an RP-LC retention time of 741 s.

Compound `CCOC(=O)c1c(C)[nH]c(C(=O)N2CCCC(C(=O)NCCN3CCN(CC)CC3)C2)c1C` (centres undefined) displayed an RP-LC retention time of 567 s.

Consider `COc1ccc(NC(=O)c2cc(C(C)C)n(-c3nc4ccccc4s3)n2)cc1OC`, for which the RP-LC retention time came out at 1200 s.

`O=C(CCc1c(-c2ccc(F)cc2)nc2ccccn12)Nc1cccc(Cl)c1` displayed an RP-LC retention time of 730 s.

The values are drawn from the METLIN SMRT retention time set (Domingo-Almenara et al. 2019).
